This note sets out measurements from the supplement of paper PMC10307832.

What all share (assay): relative viability (nuclei count vs DMSO), 5 days (fraction); higher = more cells survive
Compound in assay [1]: C[C@]1(c2nc3c(C(N)=O)cccc3[nH]2)CCCN1 [Veliparib] + Nc1nc2[nH]cc(CCc3ccc(C(=O)N[C@@H](CCC(=O)O)C(=O)O)cc3)c2c(=O)[nH]1 [Pemetrexed] (partner 0.2 µM)
The procedure, abridged: (§1)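 Lung cancer cell lines, seeded in 1536-well plates, were treated the following day by pin tool with a single drug or with five library-drug doses (not always all listed) in √10 steps on top of a fixed anchor-drug dose. Cells were fixed and nuclei stained in one step after 5 days, and nuclei were counted. Relative viability is the nuclei count for treated wells divided by that for vehicle wells, reported as medians of duplicate plates.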

Compound in assay [2]: C[C@]1(c2nc3c(C(N)=O)cccc3[nH]2)CCCN1 [Veliparib] + Cc1cc(Nc2cc(N3CCN(C)CC3)nc(Sc3ccc(NC(=O)C4CC4)cc3)n2)n[nH]1 [Tozasertib] (partner 0.1 µM)
The procedure, abridged:
as §1

Compound in assay [3]: COC1=CC=C(C=C1)CN2C=CC3=C2C=C(C=C3)C(=O)NO + Cc1nc(Nc2ncc(C(=O)Nc3c(C)cccc3Cl)s2)cc(N2CCN(CCO)CC2)n1 [Dasatinib] (partner 0.075 µM)
The essentials: as §1

Compound in assay [4]: C[C@]1(c2nc3c(C(N)=O)cccc3[nH]2)CCCN1 [Veliparib] + CC(C)C[C@H](NC(=O)[C@H](Cc1ccccc1)NC(=O)c1cnccn1)B(O)O [Bortezomib] (partner 0.002 µM)
The essentials: as §1

Take PC-14: the relative viability turned out to be 0.13 in assay [1] (first compound 0.06325 µM); 0.168 in assay [1] (first compound 0.2 µM); 0.143 in assay [1] (first compound 0.6325 µM); 0.134 in assay [1] (first compound 2 µM); 0.638 in assay [2] (first compound 0.02 µM); 0.584 in assay [2] (first compound 0.06325 µM). The relative viability in assay [2] (first compound 0.2 µM) was 0.562; in assay [2] (first compound 0.6325 µM), 0.526; in assay [2] (first compound 2 µM), 0.674; in assay [3] (first compound 0.08 µM) it was 0.236; in assay [3] (first compound 0.253 µM), 0.248; in assay [3] (first compound 0.8 µM), 0.292. In addition, the relative viability was found to be 0.26 in assay [3] (first compound 2.53 µM); 0.178 in assay [3] (first compound 8 µM); 0.865 in assay [4] (first compound 0.02 µM); 0.807 in assay [4] (first compound 0.06325 µM); 0.795 in assay [4] (first compound 0.2 µM); 0.714 in assay [4] (first compound 0.6325 µM). In addition, the relative viability in assay [4] (first compound 2 µM) amounted to 0.757.
Regarding RERF-LC-KJ, the relative viability in assay [1] (first compound 0.02 µM) stood at 0.43; in assay [1] (first compound 0.06325 µM), 0.454; in assay [1] (first compound 0.2 µM), 0.505; in assay [1] (first compound 0.6325 µM), 0.462; in assay [1] (first compound 2 µM), 0.464; in assay [2] (first compound 0.02 µM), 0.515. The relative viability is 0.5 in assay [2] (first compound 0.06325 µM); 0.521 in assay [2] (first compound 0.2 µM); 0.481 in assay [2] (first compound 0.6325 µM); 0.485 in assay [2] (first compound 2 µM); 0.839 in assay [3] (first compound 0.08 µM); 0.867 in assay [3] (first compound 0.253 µM). Further, the relative viability in assay [3] (first compound 0.8 µM) is 0.761; in assay [3] (first compound 2.53 µM) it was 0.829; in assay [3] (first compound 8 µM), 0.751; in assay [4] (first compound 0.02 µM), 1.07; in assay [4] (first compound 0.06325 µM) it was 0.928; in assay [4] (first compound 0.2 µM), 1.15. In addition, the relative viability stood at 1.02 in assay [4] (first compound 0.6325 µM) and 1.05 in assay [4] (first compound 2 µM).
Regarding SK-LU-1, the relative viability amounted to 0.963 in assay [1] (first compound 0.02 µM); 1.03 in assay [1] (first compound 0.06325 µM); 1.15 in assay [1] (first compound 0.2 µM); 0.92 in assay [1] (first compound 0.6325 µM); 0.981 in assay [1] (first compound 2 µM); 0.366 in assay [2] (first compound 0.02 µM). The relative viability was determined as 0.32 in assay [2] (first compound 0.06325 µM); 0.37 in assay [2] (first compound 0.2 µM); 0.344 in assay [2] (first compound 0.6325 µM); 0.343 in assay [2] (first compound 2 µM); 0.161 in assay [3] (first compound 0.08 µM); 0.154 in assay [3] (first compound 0.253 µM). Further, the relative viability was determined as 0.198 in assay [3] (first compound 0.8 µM); 0.21 in assay [3] (first compound 2.53 µM); 0.164 in assay [3] (first compound 8 µM); 1.51 in assay [4] (first compound 0.02 µM); 1.03 in assay [4] (first compound 0.06325 µM); 0.984 in assay [4] (first compound 0.2 µM). In addition, the figures for the relative viability in assay [4] (first compound 0.6325 µM) and in assay [4] (first compound 2 µM) were 1.36 and 0.589, respectively.
UMC-11: the relative viability in assay [1] (first compound 0.02 µM) stood at 0.931; in assay [1] (first compound 0.06325 µM), 0.749; in assay [1] (first compound 0.2 µM), 0.878; in assay [1] (first compound 0.6325 µM), 0.804; in assay [1] (first compound 2 µM) it was 0.759; in assay [2] (first compound 0.02 µM), 0.234. The relative viability stood at 0.223 in assay [2] (first compound 0.06325 µM); 0.231 in assay [2] (first compound 0.2 µM); 0.213 in assay [2] (first compound 0.6325 µM); 0.212 in assay [2] (first compound 2 µM); 0.454 in assay [3] (first compound 0.253 µM); 0.422 in assay [3] (first compound 0.8 µM). Moreover, the relative viability in assay [3] (first compound 2.53 µM) was 0.471; in assay [3] (first compound 8 µM), 0.44; in assay [4] (first compound 0.02 µM), 0.592; in assay [4] (first compound 0.06325 µM) it was 0.727; in assay [4] (first compound 0.2 µM), 0.668; in assay [4] (first compound 0.6325 µM) it was 0.685. The relative viability in assay [4] (first compound 2 µM) was 0.667.
